Assay results published in PubChem BioAssay AID1973 (The Scripps Research Institute Molecular Screening Center, 2009).
pIC50: −log10 of the molar value. Activity calls are given as the source filed them.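 How the source made its calls: active means IC50 dose giving half inhibition of the KLF5 reporter of 10 micromolar or lower; inactive means IC50 above 10 micromolar.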

test system: DLD-1 KLF5 promoter-luciferase reporter, luminescence; experiment: KLF5 promoter reporter inhibitors, dose response, luminescence, DLD-1 cells, luciferase reporter (AID 1973)

Row | SMILES | pIC50 | IC50
1 | CCNC(=S)NNC(=O)c1cc(-c2ccc(OCC)cc2)nc2ccccc12 | 5.38 | 
2 | Cc1nc2ccccn2c1-c1csc(Nc2cccc(O)c2)n1 | 6.40 | 
3 | O=C(CN1C(=O)c2ccccc2S1(=O)=O)c1ccc(Cl)cc1Cl | 5.77 | 
4 | CCc1ccc(C(=O)Nc2nc3ccccc3[nH]2)cc1 | 5.55 | 
5 | Cc1ccc(C(=O)N/N=C/c2cc(Br)ccc2O)cn1 | 5.72 | 
6 | COc1ccc(OCc2cccc(C(=O)Nn3cc([N+](=O)[O-])cn3)c2)cc1 | 6.48 | 
7 | Oc1ccc(N=Nc2ccccc2C(F)(F)F)c2cccnc12 | 5.72 | 
8 | CN(C)c1ccc(Nc2nc(N)c3ccccc3n2)cc1 | 5.60 | 
9 | CN(C)c1ccc(/C=N/Nc2cccc(C(=O)O)c2)cc1 | 6.21 | 
10 | CC1CCN(Cc2c(C(=O)N/N=C/c3ccccc3O)nnn2-c2nonc2N)CC1 | 5.74 | 
11 | C[C@]12CCC3C(CCC4=CC(O)CC[C@@]43/C=N/O)C1(O)CCC2C1=CC(=O)OC1 (stereo partly specified) | 5.66 | 
12 | CCc1ccn2cc(-c3ccc4c(c3)OCO4)nc2c1 | 5.72 | 
13 | C#Cc1ccc([C@@H]2C=C(C(=O)N3CCN(Cc4ccccc4)CC3)O[C@H](OCCCCO)C2)cc1 | 5.57 | 
14 | CC(C)(C)c1ccc(C(=O)O/N=C(\N)c2ccccc2)cc1 | 5.76 | 
15 | NS(=O)(=O)c1ccc(N=Nc2ccc(O)c3ncccc23)cc1 | 5.50 | 
16 | CCCc1ccc(C(=O)O/N=C(\N)c2ccccn2)cc1 | 6.97 | 
17 | c1ccc(-c2ccc(-c3nc(-c4ccccn4)no3)cc2)cc1 | 6.44 | 
18 | Cc1ccccc1OCC(=O)Nc1cccc(C(=O)O)c1 | 5.90 | 
19 | C/C(=N\NC(=O)c1n[nH]c2c1CCC2)c1cccs1 | 5.61 | 
20 | O=C(N/N=C/c1cc(Br)ccc1OC(=O)c1ccc(Br)cc1)c1ccncc1 | 5.81 | 
21 | COc1ccc(OC)c(Nc2cc(C)nc3nc(C)nn23)c1 | 6.31 | 
22 | CCOc1cc(Br)cc(/C=N/NC(=O)c2cccnc2)c1O | 5.78 | 
23 | O=C(N/N=C/c1cccc(Oc2ccccc2)c1)c1ccccc1F | 5.91 | 
24 | O=C(N/N=C/c1cc(O)ccc1Br)c1cccnc1 | 5.77 | 

Row | SMILES | pIC50 | IC50
25 | O=C(N/N=C/c1c(O)ccc2ccccc12)c1ccc(Br)o1 | 5.75 | 
26 | Oc1cccc2ccc(Nc3ccccn3)nc12 | 5.61 | 
27 | CC(C)Oc1ccc(C(=O)Nc2nc3ccccc3[nH]2)cc1 | 5.78 | 
28 | COC(=O)c1c(N)sc(C(=O)NCCc2ccccc2)c1C | 5.71 | 
29 | O=C(Nc1ccc(N2CCCCC2)cc1)c1ccccn1 | 6.15 | 
30 | O=C(NCCc1ccccc1F)c1ccc2c(c1)OCCO2 | 6.37 | 
31 | CNC1=C(N(C(C)=O)c2ccc(Br)cc2)C(=O)c2ccccc2C1=O | 5.73 | 
32 | O=C(CCCc1ccccc1)c1ccc2c(c1)OCCO2 | 5.91 | 
33 | Cc1cc(/C=N/Nc2nc(N)ncc2[N+](=O)[O-])c(C)n1-c1ccccc1F | 6.40 | 
34 | CC(C)(C)c1ccc(C(=O)O/N=C(\N)c2ccccn2)cc1 | 6.57 | 
35 | CC(C)(C)c1ccc(-c2noc(CCC(=O)NCC3CCCO3)n2)cc1 (stereo unspecified) | 5.74 | 
36 | O=C(O)CSCC(=O)Nc1ccc(C2CCCCC2)cc1 | 5.89 | 
37 | COc1ccc(C(=O)N/N=C/c2cc(Br)ccc2O)cc1OC | 5.81 | 
38 | Nc1ccc(-c2nc3ccc(C(=O)O)cc3s2)cc1 | 6.42 | 
39 | Cc1ccc(C(=O)Nc2nc3ccccc3[nH]2)cc1 | 5.45 | 
40 | O=C(c1cc(-c2ccccc2Cl)on1)N1CCCC1 | 5.46 | 
41 | CN1CCN(c2ccc(-c3ccc4ccccc4n3)cc2)CC1 | 6.78 | 
42 | Cc1cc(C(=O)COC(=O)c2ccccc2O)c(C)n1Cc1cccs1 | 6.25 | 
43 | CCc1ccn2cc(-c3cc(-c4ccccc4)no3)nc2c1 | 6.18 | 
44 | CCN1C=CC(=C2C(=O)c3ccccc3C2=O)C=C1 | 6.02 | 
45 | COc1ccc(OC)c2[nH]c(C(=O)N/N=C/c3ccccc3O)cc12 | 5.78 | 
46 | COc1ccc(Cl)cc1C(=O)Nc1nc2ccccc2[nH]1 | 5.39 | 
47 | COc1cccc(/C=N/Nc2ccc(C(=O)O)cc2)c1O | 7.37 | 
48 | CC(C)(C)C(=O)Nc1cc2nn(-c3ccccc3)nc2cc1Cl | 7.01 | 

Row | SMILES | pIC50 | IC50
49 | O=C1C(Nc2ccccc2)=C(N2CCCCC2)C(=O)c2ccccc21 |  | 13400 nM (inactive)
50 | Cc1ccc2nc(NC(=O)CCCc3nc4ccccc4s3)sc2c1 | 6.68 | 
51 | O=C(Nc1nc2cc3c(cc2s1)OCCO3)c1ccco1 | 5.81 | 
52 | CCOc1cccc(/C=N/NC(=O)c2ccc3c(c2)OCCO3)c1O | 5.78 | 
53 | COc1ccccc1N1CCN(Cc2cc(Br)c(O)c3ncccc23)CC1 | 5.57 | 
54 | COc1ccc(/C=N/NC(=O)CCn2c3ccccc3c3ccccc32)cc1O | 5.73 | 
55 | CCCCN=C[C@]12CCC(O)CC1(O)CCC1[C@@H]2CC[C@]2(C)[C@H](C3C=CC(=O)O3)CCC12O (stereo partly specified) | 5.69 | 
56 | COc1cccc(/C=N/Nc2nccnc2Cl)c1O | 5.68 | 
57 | CCCc1ccc(-c2ccc(/C=C/C(=O)O)cc2)nc1 | 6.38 | 
58 | Cc1ccc(S(=O)(=O)Nc2cc(Cl)c(O)c3ncccc23)cc1 | 5.74 | 
59 | CCN(CC)S(=O)(=O)c1cc(OC)ccc1N=Nc1ccc(O)c2ncccc12 | 5.69 | 
60 | COc1cc(N=Cc2c(O)[nH]c3ccccc23)cc(OC)c1OC | 5.99 | 
61 | Cn1cccc1-c1cc(C(=O)N/N=C/c2cc(Br)ccc2O)[nH]n1 | 5.82 | 
62 | Cc1cc(C(=O)CN2C(=O)c3ccccc3S2(=O)=O)c(C)n1CC1CCCO1 (stereo unspecified) | 6.57 | 
63 | O=C(N/N=C/c1c(O)ccc2ccccc12)c1cccnc1 | 5.79 | 
64 | Cc1ccc(C(=O)O/N=C(\N)c2ccccn2)c(Cl)c1 | 5.55 | 
65 | O=C(O)c1ccc(N/N=C/c2c[nH]c3ccccc23)cc1 | 5.82 | 
66 | CC1CCN(c2ccc(-c3cccs3)nn2)CC1 | 5.90 | 
67 | C[C@@H]1O[C@@H](O[C@H]2C[C@@H](O)[C@]3(CO)[C@H]4[C@H](O)C[C@]5(C)[C@@H](C6=CC(=O)OC6)CC[C@]5(O)[C@@H]4CC[C@]3(O)C2)[C@H](O)[C@H](O)[C@H]1O | 6.78 | 
68 | O=C(Nc1cccnc1)c1cccs1 | 6.02 | 
69 | CC(C)(C)C(=O)Nc1ccc(NC(=O)c2ccco2)nc1 | 6.02 | 
70 | O=C(NC1=NCCS1)C1COc2ccccc2O1 (stereo unspecified) | 5.58 | 
71 | COc1ccc(OC)c(N/C=C/C(=O)c2ccccc2)c1 | 5.77 | 
72 | O=C(N/N=C/c1cc(Cl)ccc1O)c1cccnc1 | 5.79 | 

Row | SMILES | pIC50 | IC50
73 | Cc1ccc(C(=O)O/N=C(\N)c2ccccn2)c(C)c1 | 5.85 | 
74 | COC(=O)c1nn(-c2ccc3c(c2)CCN3C(C)=O)cc1O | 5.69 | 
75 | CC(C)(C)c1ccc(-c2noc(CCC(=O)Nc3cccnc3)n2)cc1 | 6.98 | 
76 | CN(C(=O)COC(=O)/C=C/c1cccc([N+](=O)[O-])c1)C1CCS(=O)(=O)C1 (stereo unspecified) | 6.29 | 
77 | CN(CCO)c1ccc(/C=N/Nc2nncc3ccccc23)cc1 | 5.87 | 
78 | O=C(Nc1cccc(O)c1)c1cc(-c2ccc3c(c2)OCO3)on1 | 5.69 | 
79 | CC(C)(C)c1ccc(C(=O)Nc2sc3c(c2C(=O)O)CCC3)cc1 | 5.94 | 
80 | O=C(Nc1cccc(C(=O)O)c1)Nc1ccc2c(c1)OCO2 | 6.08 | 
81 | COc1ccc(C(=O)Nc2nc3ccccc3s2)c(OC)c1 | 5.63 | 
82 | COc1ccc(N/N=C/c2c(C(=O)O)ccc3ccccc23)cc1 | 5.77 | 
83 | COc1ccc(-n2ncc3c(N4CCCCC4)ncnc32)cc1 | 5.86 | 
84 | COc1cccc(/C=N/Nc2ccc([N+](=O)[O-])cn2)c1O | 5.39 | 
85 | COc1cccc(/C=N/Nc2ncc(C(F)(F)F)cc2Cl)c1O | 6.25 | 
86 | Nc1c(C(=O)Nc2cccc(C(=O)O)c2)sc2nc3c(cc12)CCCC3 | 5.83 | 
87 | COc1cc(/C=N/O)ccc1OCc1ccc(C(=O)O)cc1 | 6.09 | 
88 | CC(C)(C)c1ccc(-c2noc(CCC(N)=O)n2)cc1 | 6.87 | 
89 | CCc1ccc(NC(=O)c2cnn3ccccc23)cc1 | 5.73 | 
90 | COC(=O)c1ccc(Oc2cc(C)nc(-n3nc(C)cc3C)n2)cc1 | 6.28 | 
91 | COc1ccc2nc(SCC(=O)NC3CCCC3)c(C)cc2c1 | 5.87 | 
92 | O=C(CSc1n[nH]c(-c2ccccn2)n1)Nc1ccc(Cl)cc1 | 5.36 | 
93 | COc1cccc(/C=N/NC(=O)c2cc3c(OC)ccc(OC)c3[nH]2)c1O | 5.61 | 
94 | O=C(NCCc1ccccc1)c1ccc2c(c1)OCCCO2 | 6.38 | 
95 | CC(C)CC(NC(=O)CCCNC(=O)CCC(=O)OC1O[C@H]2OC3(C)CC[C@H]4[C@H](C)CCC(C1C)C24OO3)C(=O)O (stereo partly specified) | 6.30 | 
96 | Oc1cccc(/C=N/Nc2ccc(Cl)nn2)c1O | 5.72 | 

Row | SMILES | pIC50 | IC50
97 | Cc1ccc(C(=O)N/N=C/c2c(O)ccc3ccccc23)cn1 | 5.83 | 
98 | Cc1ccc(-c2nnc(SCC(=O)Nc3ccccc3F)o2)cc1 | 5.60 | 
99 | COC(=O)c1ccc2nc(Nc3nc4ccc(F)cc4s3)sc2c1 | 8.16 | 
100 | O=C(NCCc1ccccc1)c1ccc2c(c1)OCCO2 | 5.97 | 
101 | O=C(Nc1nccs1)c1cc2c(s1)CCCCC2 | 5.54 | 
102 | Cc1ccc2[nH]c(C(=O)N/N=C/c3ccccc3O)c(C)c2c1 |  | > 39800 nM (inactive)
103 | CCOC(=O)c1sc(NC(=O)c2sc(C)nc2C)nc1C |  | > 39800 nM (inactive)
104 | CN(C)c1ccc(/C=C/c2nc3ccccc3c(=O)[nH]2)cc1 | 5.82 | 
105 | O=C(O)c1cccc(COc2ccc3c(c2)CCC3)c1 | 6.16 | 
106 | Cc1cc(-c2ccccc2)n(-c2cc(N/N=C/c3ccccc3O)ncn2)n1 | 6.00 | 
107 | N/C(=N\OCc1ccc([N+](=O)[O-])cc1)c1ccccn1 | 5.98 | 
108 | c1ccc(-c2noc(-c3ccc4ccccc4c3)n2)nc1 | 6.10 | 
109 | COc1cc(/C=C/[N+](=O)[O-])ccc1OCc1cccc(C(=O)O)c1 | 5.68 | 
110 | C[C@@H]1O[C@@H](O[C@H]2C[C@@H](O)[C@]3(CO)[C@H]4[C@H](O)C[C@]5(C)[C@@H](C6COC(=O)C6)CC[C@]5(O)[C@@H]4CC[C@]3(O)C2)[C@H](O)[C@H](O)[C@H]1O (stereo partly specified) | 5.41 | 
111 | CCOC(=O)c1sc(NC(=O)c2cc3c(s2)CCC(C)C3)nc1C (stereo unspecified) | 6.96 | 
112 | Cc1ccc(C(=O)Nc2cnc3ccccc3c2)cc1 | 6.13 | 
113 | COc1ccc2[nH]c(C(=O)N/N=C/c3ccc(OC)c(O)c3)cc2c1 | 5.29 | 
114 | COC(=O)C1=C(CN2CCCc3ccccc32)NC(=O)NC1c1ccc(F)cc1 (stereo unspecified) | 5.52 | 
115 | Clc1ccccc1/C=C/c1nc(-c2ccccn2)no1 | 5.81 | 
116 | CCCS(=O)(=O)c1cnc(C2COc3ccccc3O2)nc1N (stereo unspecified) | 5.85 | 
